Measured values as given in US20260078103A1, “ISOQUINOLONES AS PI3K INHIBITORS” (OnKure, Inc., priority 2022, published 2026).
Where two headings read alike, the source gives them in different places.

What was measured:
Type in all cases: cell-based
[1] = tested on: T47D cells expressing mutant PI3Ka (H1047R); experiment: In vitro cell proliferation, T47D cells (CellTiter-Glo); conditions: inhibition of proliferation, read-out: Avg T-47D EC50
Procedure: (§1) In Vitro Cell Proliferation: Determination of EC50 Values for Inhibition of Proliferation in T47D Cells Expressing Mutant PI3Ka (H1047R) Mutation and SKBR3 Cells Express WT PI3Ka.
(§2) T47D or SKBR3 cells were trypsinized, resuspended in culture media and seeded onto assay ready plates. T47D culture media consisted of RPMI, 10% FBS and Insulin (0.2 units/mL). SKBR3 culture media consisted of McCoys 5a and 10% FBS. Cells were seeded at a density of 1,500 cells/well and dispensed in 50 μl onto 384 well assay ready plates (Corning, 89089-790). Assay ready plates had previously been stamped with 10-point dilutions of compounds of interest, as well as controls. The Echo655 is used to stamp plates at 40 nL of compound or DMSO. Cells were grown for 72 hours at 37° Celsius and 5% CO2. After 72 hours, cells were equilibrated at room temperature for 15 minutes. 30 μL of CellTiter-Glo reagent is added to the plate, which is then shaken for 30 minutes at temperature at 300-500 rpm. Cells are then read on an Envision plate reader. The percentage of inhibition of proliferation was calculated using the following formula: % Inhibition=100×(LumD−Lumsample)/(LumD−Lumlnh), where D is obtained from cells treated with 0.1% DMSO only; lnh is obtained from cells treated with 10 uM Alpelisib. The effective concentration achieving 50% inhibition of proliferation (EC50) is calculated by fitting the Curve using Xlfit (v5.3.1.3), equation 201: Y=Bottom+(Top−Bottom)/(1+10^((LogEC50−X)*HillSlope)).

[2] = tested on: SKBR3 cells express WT PI3Ka; experiment: In vitro cell proliferation, SKBR3 cells (CellTiter-Glo); conditions: inhibition of proliferation
Procedure: as §1, §2

[3] = tested on: phosphorylation of AKT (pAKT) in T47D cells expressing mutant PI3Ka (H1047R); experiment: In vitro cell pAKT (Ser473) HTRF, T47D cells; conditions: cellular pAKT, T47D cells, mutant PI3Ka (H1047R), 6 hours, read-out: Avg T-47D IC50
Procedure: (§3) In Vitro Cell pAKT: Determination of IC50 Values for Inhibition of Phosphorylation of AKT (pAKT) in T47D Cells Expressing Mutant PI3Ka (H1047R) Mutation and SKBR3 Cells Express WT PI3Ka.
(§4) T47D or SKBR3 cells were trypsinized, resuspended in culture media and seeded onto assay ready plates. T47D culture media consisted of RPMI, 10% FBS and Insulin (0.2 units/mL). SKBR3 culture media consisted of McCoy's 5a and 10% FBS. Cells were seeded at a density of 5000 cells/well and dispensed in 12.5 μL onto 384 well assay ready plates (Perkin Elmer, 6008238)). Assay ready plates had previously been stamped with 10-point dilutions of compounds of interest, as well as controls. The Echo655 is used to stamp plates at 12.5 nL of compound or DMSO. Cells were grown for 6 hours at 37° Celsius and 5% CO2. After 6 hours, 4 μL of Lysis buffer reagent was added to the plate, which was then centrifuged for 1 minute at 1000 rpm. Then the plate was incubated at room temperature for 30 minutes. After 30 minutes, 4 μL of antibody mix containing Eu Cryptate, d2 Cryptate, and detection buffer, was added to the plate. The plate was centrifuged for 1 minute at 1000 rpm and then incubated overnight at room temperature. The plate was read on an Envision plate reader using the HTRF protocol. The percentage of inhibition of AKT phosphorylation was calculated using the following formula: % Inhibition=100×(pAKTHC−pAKTSample)/(pAKTHC−pAKTLC)), where pAKTHC is obtained from cells treated with 0.1% DMSO only; PAKTLC is obtained from cells treated with 10 uM Alpelisib. The IC50 (concentration achieving 50% inhibition of pAKT) is calculated by fitting the Curve using XIfit (v5.3.1.3), equation 201: Y=Bottom+(Top−Bottom)/(1+10^((LogIC50−X)*HillSlope)).

[4] = tested on: phosphorylation of AKT (pAKT) in SKBR3 cells express WT PI3Ka; experiment: In vitro cell pAKT (Ser473) HTRF, SKBR3 cells; conditions: cellular pAKT
Procedure: as §3, §4

Structure (SMILES)	EC50 ([1]; Homo sapiens, T47D, 72 h)	EC50 ([2]; Homo sapiens, SK-BR-3, 72 h)	IC50 ([3]; Homo sapiens, T47D, 6 h)	IC50 ([4]; Homo sapiens, SK-BR-3, 6 h)	EC50 ([1]; 72 hours)	IC50 [3]	EC50 ([2]; 72 hours)	IC50 ([4]; 6 hours)
Cc1cc([C@@H](C)Nc2ccccc2C(=O)O)c2cc([C@H]3C[C@@H]3C(C)(C)O)n(C)c(=O)c2c1 (single isomer, unassigned) [Example 373]	1 to 500 nM	> 15000 nM	1 to 500 nM	> 15000 nM	–	–	–	–
Cc1cc([C@@H](C)Nc2ccccc2C(=O)O)c2cc(-c3cc(F)c4c(cnn4C)c3)n(C)c(=O)c2c1 [Example 366]	1 to 500 nM	2000 to 15000 nM	1 to 500 nM	2000 to 15000 nM	–	–	–	–
COC1(C)CCN(c2cc3c(C(C)Nc4ccccc4C(=O)O)cc(C)cc3c(=O)n2C)CC1 (single isomer, unassigned) [Example 153]	–	–	–	–	1 to 500 nM	1 to 500 nM	2000 to 15000 nM	2000 to 15000 nM
Cc1cc(C(C)Nc2ccccc2C(=O)O)c2cc(N3CC4(CC(C(F)(F)F)C4)C3)n(C)c(=O)c2c1 (single isomer, unassigned) [Example 83]	–	–	–	–	2000 to 15000 nM	> 15000 nM	> 15000 nM	> 15000 nM
Cc1cc([C@@H](C)Nc2ccccc2C(=O)O)c2cc(-c3cnc(C4CC4)nc3)n(C)c(=O)c2c1 [Example 307]	1 to 500 nM	> 15000 nM	1 to 500 nM	> 15000 nM	–	–	–	–
Cc1cc(C(C)Nc2ccc(Cl)nc2C(=O)O)c2cc(N3Cc4ccc(F)cc4C3)n(C)c(=O)c2c1 (single isomer, unassigned) [Example 127]	–	–	–	–	2000 to 15000 nM	> 15000 nM	> 15000 nM	> 15000 nM
Cc1cc([C@@H](C)Nc2ccccc2C(=O)O)c2cc(-c3ccc(C4(C#N)CC4)nc3)n(C)c(=O)c2c1 [Example 331]	1 to 500 nM	> 15000 nM	1 to 500 nM	> 15000 nM	–	–	–	–
Cc1cc(C(C)Nc2cccc(C#N)c2C(=O)O)c2cc(N3CCN(CC(F)(F)F)CC3)n(C)c(=O)c2c1 (stereo not shown) [Example 354]	–	–	–	–	2000 to 15000 nM	2000 to 15000 nM	> 15000 nM	> 15000 nM
Cc1nc(N2CCN(c3cc4c([C@@H](C)Nc5cccc(F)c5C(=O)O)cc(F)cc4c(=O)n3C)CC2)cs1 [Example 490]	1 to 500 nM	2000 to 15000 nM	1 to 500 nM	2000 to 15000 nM	–	–	–	–
Cc1cc([C@@H](C)Nc2cccc(F)c2C(=O)O)c2cc(N3CCN(C)[C@H](C(F)(F)F)C3)n(C)c(=O)c2c1 [Example 411]	1 to 500 nM	> 15000 nM	1 to 500 nM	> 15000 nM	–	–	–	–
C[C@@H](Nc1ccccc1C(=O)O)c1cc(F)cc2c(=O)n(C)c(C3C[C@@H]3C(F)(F)F)cc12 (single isomer, unassigned) [Example 452]	–	–	–	–	1 to 500 nM	1 to 500 nM	> 15000 nM	> 15000 nM
C#Cc1ccc(N[C@H](C)c2cc(C)cc3c(=O)n(C)c(-c4cnc(C(F)(F)F)nc4)cc23)c(C(=O)O)n1 [Example 375]	–	–	–	–	1 to 500 nM	1 to 500 nM	> 15000 nM	> 15000 nM
Cc1cc([C@@H](C)Nc2ccccc2C(=O)O)c2cc(C34CC(c5ccc(F)cc5)(C3)C4)n(C)c(=O)c2c1 [Example 321]	–	–	–	–	1 to 500 nM	1 to 500 nM	> 15000 nM	2000 to 15000 nM
CC(=O)N1CCN(c2cc3c(C(C)Nc4ccccc4C(=O)O)cc(C)cc3c(=O)n2C)CC1 (stereo not shown) [Example 54]	2000 to 15000 nM	> 15000 nM	–	–	–	–	–	–
Cc1ccc(N[C@H](C)c2cc(F)cc3c(=O)n(C)c(C4CC4C4CC4)cc23)c(C(=O)O)n1 (stereo in doubt) [Example 46, -(((R)-1-(3-(trans-[1,1′-bi(cyclopropan)]-2-yl)-7-fluoro-2-methyl-1-oxo-1,2-dihydroisoquinolin-5-yl)ethyl)amino)-6-methylpicolinic acid]	–	–	–	–	500 to 2000 nM	1 to 500 nM	–	> 15000 nM
Cc1cc(C(C)Nc2ccccc2C(=O)O)c2cc(C3CCC(C)(C)CC3)n(C)c(=O)c2c1 (single isomer, unassigned) [Example 51]	–	–	–	–	2000 to 15000 nM	–	> 15000 nM	–
Cc1cc(C(C)Nc2ccccc2C(=O)O)c2cc(C3CCC(C)(C)CC3)n(C)c(=O)c2c1 (single isomer, unassigned) [Example 52]	–	–	–	–	1 to 500 nM	–	2000 to 15000 nM	–
Cc1cc(C(C)Nc2ccccc2C(=O)O)c2cc(N3C[C@@H]4[C@@H](C#N)[C@@H]4C3)n(C)c(=O)c2c1 (stereo partly drawn) [Example 16, 2-((1-(3-((1R,5S,6r)-6-cyano-3-azabicyclo[3.1.0]hexan-3-yl)-2,7-dimethyl-1-oxo-1,2-dihydroisoquinolin-5-yl)ethyl)amino)benzoic acid]	–	–	–	–	2000 to 15000 nM	> 15000 nM	–	–

Results, then the compound that gave them:

EC50 ([1]; Homo sapiens, T47D, 72 h)	EC50 ([2]; Homo sapiens, SK-BR-3, 72 h)	IC50 ([3]; Homo sapiens, T47D, 6 h)	IC50 ([4]; Homo sapiens, SK-BR-3, 6 h)	EC50 ([1]; 72 hours)	IC50 [3]	EC50 ([2]; 72 hours)	IC50 ([4]; 6 hours)	Structure (SMILES)
1 to 500 nM	2000 to 15000 nM	1 to 500 nM	2000 to 15000 nM	–	–	–	–	CNc1ccc(N2CCN(c3cc4c([C@@H](C)Nc5ccccc5C(=O)O)cc(C)cc4c(=O)n3C)CC2)cn1 [Example 233]
1 to 500 nM	> 15000 nM	1 to 500 nM	> 15000 nM	–	–	–	–	Cc1cc(C(C)Nc2ccccc2C(=O)O)c2cc(N3Cc4ccncc4C3)n(C)c(=O)c2c1 (stereo not shown) [Example 66]
–	2000 to 15000 nM	–	> 15000 nM	2000 to 15000 nM	> 15000 nM	–	–	Cc1cc(C(C)Nc2ccccc2C(=O)O)c2cc(N3Cc4cccnc4C3)n(C)c(=O)c2c1 (single isomer, unassigned) [Example 18, 2-((1-(3-(5,7-dihydro-6H-pyrrolo[3,4-b]pyridin-6-yl)-2,7-dimethyl-1-oxo-1,2-dihydroisoquinolin-5-yl)ethyl)amino)benzoic acid]
–	–	–	–	1 to 500 nM	1 to 500 nM	> 15000 nM	> 15000 nM	Cc1cc(C(C)Nc2ccccc2C(=O)O)c2cc(N3Cc4cc(F)cc(F)c4C3)n(C)c(=O)c2c1 (single isomer, unassigned) [Example 103]
1 to 500 nM	2000 to 15000 nM	1 to 500 nM	> 15000 nM	–	–	–	–	Cc1cc([C@@H](C)Nc2ccccc2C(=O)O)c2cc(-c3cccc(C(F)F)n3)n(C)c(=O)c2c1 [Example 338]
–	> 15000 nM	–	> 15000 nM	2000 to 15000 nM	> 15000 nM	–	–	Cc1cc(C(C)Nc2ccccc2C(=O)O)c2cc(N3Cc4ccncc4C3)n(C)c(=O)c2c1 (single isomer, unassigned) [Example 106]
> 15000 nM	> 15000 nM	> 15000 nM	> 15000 nM	–	–	–	–	Cc1cc([C@@H](C)Nc2ccccc2C(=O)O)c2cc(N3CCn4c(C)nnc4C3)n(C)c(=O)c2c1 [Example 418]
2000 to 15000 nM	> 15000 nM	2000 to 15000 nM	> 15000 nM	–	–	–	–	Cc1cc([C@@H](C)Nc2ccccc2C(=O)O)c2cc(N3CCn4nncc4C3)n(C)c(=O)c2c1 [Example 436]
2000 to 15000 nM	> 15000 nM	500 to 2000 nM	> 15000 nM	–	–	–	–	Cc1cc(C(C)Nc2ccccc2C(=O)O)c2cc(N3CC4(C3)CC(F)(F)C4)n(C)c(=O)c2c1 (stereo not shown) [Example 56]
–	–	–	–	2000 to 15000 nM	–	> 15000 nM	–	Cc1cc(C(C)Nc2ccccc2C(=O)O)c2cc(N3Cc4ccc(F)cc4C3)n(C)c(=O)c2c1 (single isomer, unassigned) [Example 50]
2000 to 15000 nM	> 15000 nM	–	–	–	–	–	–	Cc1cc(C(C)Nc2ccccc2C(=O)O)c2cc(N3CC(c4ccccc4)C3)n(C)c(=O)c2c1 (stereo not shown) [Example 53]
